The record followed here is US20220153751A1, “BIFUNCTIONAL COMPOUNDS” (BioTheryX, Inc., priority 2018, published 2022).

Structures are written as SMILES.

Type in all cases: cell-based
One test relates to MOLM-13 cells. The test is described as follows: MOLM-13 cell viability assay (CellTiter-Glo). The following applies: Homo sapiens, MOLM-13, 72 h, 3 days, read-out: MOLM-13 Cell Viability % DMSO at 1 μM. A digest of the protocol:
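MOLM-13 cells at 2500 cells/well were exposed to compound for 3 days at 37 °C. Viability was read by CellTiter-Glo luminescence and expressed as % of DMSO control, binned A (<50%), B (50–<70%), C (70–<90%) or D (≥90%).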

For the next test, the system named is IL-2. The test is described as follows: IL-2 fold-change assay, anti-CD3 stimulated PBMCs (Mesoscale). The following applies: PBMC, PBMCs on anti-human CD3, 24 h, fold difference from the DMSO control. How it is done: For the IL-2 analysis, 96 well plates were precoated with 1 μg/mL anti-human CD3 antibody (OK3, eBioscience Inc., San Diego, Calif.). After washing with PBS, the indicated compound was added (50 μL/well) followed by PBMCs diluted at 3-4 million cells/mL (150 μL/well). Plates were incubated for 24 h and the supernatants collected for Mesoscale IL-2 analysis. IL-2 activity is measured as fold difference from the DMSO control.
In Table 6, the % inhibition values are reported as “A”, “B”, “C”, or “D”. “A” represents a % inhibition value of less than 50% (value <50%). “B” represents a % inhibition value of equal to or more than 50% and less than 70% (50%≤value<70%). “C” represents a % inhibition value of equal to or more than 70% and less than 90% (70%≤value<90%). “D” represents a % inhibition value of equal or more than 90% (value ≥90%). In Table 7, the fold-change values are reported as “A”, “B”, “C”, or “D”. “A” represents a fold-change value of equal to or less than 0.1 (value ≤0.1). “B” represents a fold-change value of more than 0.1 and equal to or less than 0.5 (0.1<value≤0.5). “C” represents a fold-change value of more than 0.5 and equal to or less than 1 (0.5<value≤1). “D” represents a fold-change value of more than 1 (value >1).

A further test has as its system IL-1β. The test is described as follows: IL-1β inhibition assay, LPS-induced PBMCs / CD14+ monocytes (Meso Scale). The following applies: 1 h pretreatment, 100 ng/mL LPS 18-24 h. A digest of the protocol:
(§1)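 Thawed human PBMCs or CD14+ mobilized peripheral blood monocytes, 200,000 cells/well in RPMI-1640/10% FBS, pretreated with compound or DMSO 1 h, then stimulated with 100 ng/mL LPS for 18-24 h. Supernatant cytokine measured by Meso Scale; % inhibition binned A–D (<50%, 50–70%, 70–90%, ≥90%), fold-change binned A–D (≤0.1, ≤0.5, ≤1, >1).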

In a further test the test system is TNF-α. The test is described as follows: TNF-α inhibition assay, LPS-induced PBMCs / CD14+ monocytes (Meso Scale). The following applies: 1 h pretreatment, 100 ng/mL LPS 18-24 h. A digest of the protocol: as §1
Another test has as its system IL-6. As to the kind of experiment: IL-6 inhibition assay, LPS-induced PBMCs / CD14+ monocytes (Meso Scale). The following applies: 1 h pretreatment, 100 ng/mL LPS 18-24 h. In a few lines:
as §1

The next test concerns the target T1, IKAROS (Homo sapiens, UniProt Q13422+Q96SW2).
T1 construct: endogenous in cells; host or cells: MV-4-11
The test is described as follows: IKAROS degradation assay (Western blot, MV-4-11 cells). To be noted: MV4-11, 6-8 h. A digest of the protocol: (§2)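 Reported degradation is grouped into four bands (A below 25%, B 25% to under 50%, C 50% to under 75%, D 75% or more). Treatment lasts 6-8 h against a DMSO control, followed by RIPA extraction and immunoblotting with near-infrared detection.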

The target in a further test is T2, CDK16 (Homo sapiens, UniProt Q00536).
T2 construct: Whole cell extracts were prepared using RIPA buffer; endogenous in cells; host or cells: MV-4-11
The test is described as follows: CDK16 degradation assay (Western blot, MV-4-11 cells). To be noted: 6-8 h; for Dmax at 0.1 µM: MV4-11, 0.1 μM; for Dmax at 1 µM: MV4-11, 1 μM. In a few lines: as §2

The target in another test is T3, CDK9 (Homo sapiens, UniProt P50750).
T3 construct: Whole cell extracts were prepared using RIPA buffer; endogenous in cells; host or cells: MV-4-11
As to the kind of experiment: CDK9 degradation assay (Western blot, MV-4-11 cells). The following applies: 6-8 h; for Dmax at 0.1 µM: MV4-11, 0.1 μM; for Dmax at 1 µM: MV4-11, 1 μM. In a few lines:
as §2

T3 sequence (P50750 whole entry): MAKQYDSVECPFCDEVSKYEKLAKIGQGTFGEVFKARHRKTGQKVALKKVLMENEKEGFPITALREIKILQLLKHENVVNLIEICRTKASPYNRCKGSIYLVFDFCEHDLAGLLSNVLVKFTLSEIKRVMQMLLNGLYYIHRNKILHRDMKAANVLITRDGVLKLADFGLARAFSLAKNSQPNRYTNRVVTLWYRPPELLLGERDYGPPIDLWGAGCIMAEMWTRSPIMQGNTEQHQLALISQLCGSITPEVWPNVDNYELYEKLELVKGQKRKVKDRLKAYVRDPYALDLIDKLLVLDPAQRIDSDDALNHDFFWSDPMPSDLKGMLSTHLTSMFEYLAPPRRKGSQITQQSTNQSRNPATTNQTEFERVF
T1 sequence (Q13422 whole entry): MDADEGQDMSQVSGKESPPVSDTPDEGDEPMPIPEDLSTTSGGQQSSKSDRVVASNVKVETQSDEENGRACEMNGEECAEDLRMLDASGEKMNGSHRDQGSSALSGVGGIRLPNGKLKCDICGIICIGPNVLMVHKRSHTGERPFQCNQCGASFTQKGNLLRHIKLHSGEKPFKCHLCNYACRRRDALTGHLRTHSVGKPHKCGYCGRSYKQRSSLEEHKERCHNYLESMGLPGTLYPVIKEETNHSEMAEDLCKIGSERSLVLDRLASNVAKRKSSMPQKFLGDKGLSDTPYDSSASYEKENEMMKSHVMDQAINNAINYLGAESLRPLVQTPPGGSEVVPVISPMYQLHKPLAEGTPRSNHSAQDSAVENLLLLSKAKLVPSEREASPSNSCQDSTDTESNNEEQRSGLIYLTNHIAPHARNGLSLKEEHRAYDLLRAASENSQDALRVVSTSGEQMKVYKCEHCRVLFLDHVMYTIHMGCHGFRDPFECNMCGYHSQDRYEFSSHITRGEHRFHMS
T1 sequence (Q96SW2 whole entry): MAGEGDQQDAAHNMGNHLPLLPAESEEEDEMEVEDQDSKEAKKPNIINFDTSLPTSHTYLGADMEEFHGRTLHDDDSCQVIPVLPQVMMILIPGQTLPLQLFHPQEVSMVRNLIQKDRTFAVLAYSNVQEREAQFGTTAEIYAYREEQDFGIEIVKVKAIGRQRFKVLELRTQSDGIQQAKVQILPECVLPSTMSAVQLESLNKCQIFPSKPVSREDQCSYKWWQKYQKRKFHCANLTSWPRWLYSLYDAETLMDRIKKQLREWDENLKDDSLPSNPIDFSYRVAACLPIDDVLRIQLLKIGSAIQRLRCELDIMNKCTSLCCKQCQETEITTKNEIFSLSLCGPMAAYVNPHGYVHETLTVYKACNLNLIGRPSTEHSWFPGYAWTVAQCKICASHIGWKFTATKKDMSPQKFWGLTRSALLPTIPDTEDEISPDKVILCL
T1 sequence (Q16531 whole entry partner): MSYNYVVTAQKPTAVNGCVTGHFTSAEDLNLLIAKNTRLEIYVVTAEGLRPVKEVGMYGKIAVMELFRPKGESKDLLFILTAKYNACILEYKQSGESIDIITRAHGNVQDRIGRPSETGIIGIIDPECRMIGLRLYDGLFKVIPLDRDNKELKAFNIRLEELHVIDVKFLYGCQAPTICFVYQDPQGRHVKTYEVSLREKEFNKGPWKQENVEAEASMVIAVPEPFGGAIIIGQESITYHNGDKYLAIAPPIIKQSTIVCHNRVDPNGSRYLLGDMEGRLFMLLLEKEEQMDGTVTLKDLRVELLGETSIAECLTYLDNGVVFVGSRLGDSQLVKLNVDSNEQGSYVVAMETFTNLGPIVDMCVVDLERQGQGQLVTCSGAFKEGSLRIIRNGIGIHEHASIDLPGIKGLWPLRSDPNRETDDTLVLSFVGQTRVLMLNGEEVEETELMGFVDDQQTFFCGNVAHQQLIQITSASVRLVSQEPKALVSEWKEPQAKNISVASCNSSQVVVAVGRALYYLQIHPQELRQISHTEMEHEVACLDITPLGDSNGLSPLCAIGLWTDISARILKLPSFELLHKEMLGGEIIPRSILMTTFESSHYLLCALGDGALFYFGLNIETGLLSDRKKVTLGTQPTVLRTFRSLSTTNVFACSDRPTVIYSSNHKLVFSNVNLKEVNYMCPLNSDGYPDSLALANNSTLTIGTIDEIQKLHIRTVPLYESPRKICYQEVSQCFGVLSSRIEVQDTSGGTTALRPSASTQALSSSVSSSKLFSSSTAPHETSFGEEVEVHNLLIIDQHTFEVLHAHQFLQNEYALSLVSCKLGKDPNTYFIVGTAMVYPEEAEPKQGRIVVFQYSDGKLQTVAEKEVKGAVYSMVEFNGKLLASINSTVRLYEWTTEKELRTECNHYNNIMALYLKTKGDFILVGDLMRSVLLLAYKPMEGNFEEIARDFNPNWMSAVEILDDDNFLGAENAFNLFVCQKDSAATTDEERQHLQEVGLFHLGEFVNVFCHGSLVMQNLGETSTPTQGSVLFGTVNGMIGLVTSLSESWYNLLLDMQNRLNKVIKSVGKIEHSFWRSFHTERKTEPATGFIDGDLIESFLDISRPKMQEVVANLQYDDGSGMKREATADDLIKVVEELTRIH
T2 sequence (Q00536 whole entry): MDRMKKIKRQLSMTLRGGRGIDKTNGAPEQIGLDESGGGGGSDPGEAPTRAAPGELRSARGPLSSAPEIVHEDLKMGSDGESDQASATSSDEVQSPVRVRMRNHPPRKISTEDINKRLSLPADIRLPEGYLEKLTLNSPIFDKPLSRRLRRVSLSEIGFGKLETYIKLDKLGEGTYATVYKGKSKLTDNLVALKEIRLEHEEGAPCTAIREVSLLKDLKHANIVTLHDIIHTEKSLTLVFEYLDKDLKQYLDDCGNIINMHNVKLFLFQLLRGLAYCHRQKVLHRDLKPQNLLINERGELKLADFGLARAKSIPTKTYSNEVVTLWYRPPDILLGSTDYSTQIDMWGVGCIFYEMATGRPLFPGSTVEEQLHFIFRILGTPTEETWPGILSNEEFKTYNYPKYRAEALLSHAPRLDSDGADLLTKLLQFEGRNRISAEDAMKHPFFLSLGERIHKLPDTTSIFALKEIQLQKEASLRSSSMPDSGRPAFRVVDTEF

`Cn1ncc(-c2nc(N[C@H]3CC[C@H](NCC(=O)NCCOCCOCCOCCNC(=O)NCc4cc5c(s4)C(=O)N(C4CCC(=O)NC4=O)C5)CC3)ncc2Cl)c1CC1CC1` (stereo partly drawn) [Compound 46, 2-(((1r,4r)-4-((5-chloro-4-(5-(cyclopropylmethyl)-1-methyl-1H-pyrazol-4-yl)pyrimidin-2-yl)amino)cyclohexyl)amino)-N-(1-(5-(2,6-dioxopiperidin-3-yl)-6-oxo-5,6-dihydro-4H-thieno[2,3-c]pyrrol-2-yl)-3-oxo-7,10,13-trioxa-2,4-diazapentadecan-15-yl)acetamide]: the viability at 1 µM in the test on MOLM-13 cells is > 90%. Further, the fold induction at 1 µM in the test on IL-2 is 0.1 to 0.5. Further, the figures for the inhibition at 1 µM in the test with IL-1β, in the test on TNF-α and in the test with IL-6 were 70 to 90%, 50 to 70% and 70 to 90%, respectively.

With `CC(C)(C)c1cnc(CSc2cnc(NC(=O)C3CCN(CC(=O)NCCOCCOCCNCC(=O)NCc4scc5c4CN(C4CCC(=O)NC4=O)C5=O)CC3)s2)o1` (stereo not drawn) [Compound 26, N-(5-(((5-(tert-butyl)oxazol-2-yl)methyl)thio)thiazol-2-yl)-1-(1-(5-(2,6-dioxopiperidin-3-yl)-4-oxo-5,6-dihydro-4H-thieno[3,4-c]pyrrol-1-yl)-3,15-dioxo-8,11-dioxa-2,5,14-triazahexadecan-16-yl)piperidine-4-carboxamide], in the test on MOLM-13 cells, the viability at 1 µM is > 90%. For the same molecule, the fold induction at 1 µM with IL-2 is ≤ 0.1. The inhibition at 1 µM with IL-1β was > 90%; in the test on TNF-α, 70 to 90%; in the test with IL-6 it was > 90%. Further, the Dmax at 1 µM was 50 to 75% on IKAROS, < 25% on CDK16 and ≥ 75% at CDK9. Further, the Dmax at 0.1 µM is 25 to 50% at CDK16 and 50 to 75% on CDK9.

Consider `CC(C)(C)c1cnc(CSc2cnc(NC(=O)C3CCN(CCCCCCCNCC(=O)NCc4cc5c(s4)C(=O)N(C4CCC(=O)NC4=O)C5)CC3)s2)o1` (stereo not drawn) [Compound 57, N-(5-(((5-(tert-butyl)oxazol-2-yl)methyl)thio)thiazol-2-yl)-1-(7-((2-(((5-(2,6-dioxopiperidin-3-yl)-6-oxo-5,6-dihydro-4H-thieno[2,3-c]pyrrol-2-yl)methyl)amino)-2-oxoethyl)amino)heptyl)piperidine-4-carboxamide], for which the viability at 1 µM in the test on MOLM-13 cells was > 90%. In the test with IL-2, the fold induction at 1 µM is ≤ 0.1. In addition, the inhibition at 1 µM with IL-1β, in the test with TNF-α and with IL-6 was > 90% in each case. This molecule registered a Dmax at 1 µM on IKAROS of 25 to 50%.

As for `Cc1nc2c(CNC(=O)NCCCCCCCCN[C@H]3CC[C@H](Nc4ncc(Cl)c(-c5cnn(C)c5CC5CC5)n4)CC3)scc2c(=O)n1C1CCC(=O)NC1=O` (stereo partly drawn) [Compound 61, 1-(8-(((1r,4r)-4-((5-chloro-4-(5-(cyclopropylmethyl)-1-methyl-1H-pyrazol-4-yl)pyrimidin-2-yl)amino)cyclohexyl)amino)octyl)-3-((3-(2,6-dioxopiperidin-3-yl)-2-methyl-4-oxo-3,4-dihydrothieno[3,4-d]pyrimidin-7-yl)methyl)urea], the viability at 1 µM in the test with MOLM-13 cells was > 90%. Also, the fold induction at 1 µM in the test on IL-2 is 0.1 to 0.5. The inhibition at 1 µM with IL-1β, in the test with TNF-α and with IL-6 was > 90% throughout. The Dmax at 1 µM at IKAROS fell in the range of 25 to 50%.

`CC(C)(C)c1cnc(CSc2cnc(NC(=O)C3CCN(CC(=O)NCCOCCOCCNC(=O)NCc4cc5c(s4)C(=O)N(C4CCC(=O)NC4=O)C5)CC3)s2)o1` (stereo not drawn) [Compound 13, N-(5-(((5-(tert-butyl)oxazol-2-yl)methyl)thio)thiazol-2-yl)-1-(1-(5-(2,6-dioxopiperidin-3-yl)-6-oxo-5,6-dihydro-4H-thieno[2,3-c]pyrrol-2-yl)-3,14-dioxo-7,10-dioxa-2,4,13-triazapentadecan-15-yl)piperidine-4-carboxamide]: the viability at 1 µM in the test with MOLM-13 cells is > 90%. The fold induction at 1 µM in the test with IL-2 was ≤ 0.1. Besides, the inhibition at 1 µM in the test on IL-1β, with TNF-α and in the test on IL-6 was > 90% throughout. In addition, the Dmax at 0.1 µM on CDK16 is < 25%; on CDK9 it was 50 to 75%. Also, the values for the Dmax at 1 µM at CDK16 and at CDK9 were < 25% and ≥ 75%, respectively.

In the case of `CC(C)(C)c1cnc(CSc2cnc(NC(=O)C3CCN(CC(=O)NCCOCCNC(=O)NCc4scc5c4CN(C4CCC(=O)NC4=O)C5=O)CC3)s2)o1` (stereo not drawn) [Compound 2, 3-{6-Oxo-2-[(3-{2-[2-(2-{4-[(5-{[5-(tert-butyl)-1,3-oxazol-2-yl]methylthio}-1,3-thiazol-2-ylamino)carbonyl]-1-piperidyl}acetylamino)ethoxy]ethyl}ureido)methyl]-3-thia-7-azabicyclo[3.3.0]octa-1,4-dien-7-yl}-2,6-piperidinedione], the viability at 1 µM with MOLM-13 cells is > 90%. The fold induction at 1 µM with IL-2 fell in the range of 0.1 to 0.5. Besides, the inhibition at 1 µM with IL-1β is > 90%; with TNF-α, 70 to 90%; in the test with IL-6 it was > 90%. On IKAROS, this molecule showed a Dmax at 1 µM of 25 to 50%.

As to `CC(C)(C)c1cnc(CSc2cnc(NC(=O)C3CCN(CC(=O)NCCOCCOCCOCCNCC(=O)NCc4cc5c(s4)C(=O)N(C4CCC(=O)NC4=O)C5)CC3)s2)o1` (stereo not drawn) [Compound 42, N-(5-(((5-(tert-butyl)oxazol-2-yl)methyl)thio)thiazol-2-yl)-1-(1-(5-(2,6-dioxopiperidin-3-yl)-6-oxo-5,6-dihydro-4H-thieno[2,3-c]pyrrol-2-yl)-3,18-dioxo-8,11,14-trioxa-2,5,17-triazanonadecan-19-yl)piperidine-4-carboxamide], the viability at 1 µM in the test on MOLM-13 cells was 70 to 90%. Further, in the test on IL-2, the fold induction at 1 µM is 0.1 to 0.5. Moreover, the inhibition at 1 µM is > 90% with IL-1β, < 50% in the test on TNF-α and > 90% in the test on IL-6. In addition, the values for the Dmax at 1 µM at IKAROS, on CDK16 and on CDK9 were 25 to 50%, < 25% and ≥ 75%, respectively. For the same molecule, the Dmax at 0.1 µM on CDK16 was < 25%; on CDK9 it was 25 to 50%.

Regarding `Cn1ncc(-c2cc(N[C@H]3CC[C@H](NCCCCCCCCNC(=O)NCc4cc5c(s4)C(=O)N(C4CCC(=O)NC4=O)C5)CC3)ncc2F)c1CC1CC1` (stereo partly drawn) [Compound 59, 1-(8-(((1r,4r)-4-((4-(5-(cyclopropylmethyl)-1-methyl-1H-pyrazol-4-yl)-5-fluoropyridin-2-yl)amino)cyclohexyl)amino)octyl)-3-((5-(2,6-dioxopiperidin-3-yl)-6-oxo-5,6-dihydro-4H-thieno[2,3-c]pyrrol-2-yl)methyl)urea], the viability at 1 µM with MOLM-13 cells was > 90%. Besides, the fold induction at 1 µM in the test with IL-2 was 0.5 to 1. Further, the inhibition at 1 µM is 70 to 90% in the test on IL-1β, < 50% with TNF-α and 70 to 90% with IL-6.

As to `Cn1ncc(-c2nc(N[C@H]3CC[C@H](NCCCCCCNC(=O)NCc4cc5c(s4)C(=O)N(C4CCC(=O)NC4=O)C5)CC3)ncc2F)c1CC1CC1` (stereo partly drawn) [Compound 21, 1-(6-(((1r,4r)-4-((4-(5-(cyclopropylmethyl)-1-methyl-1H-pyrazol-4-yl)-5-fluoropyrimidin-2-yl)amino)cyclohexyl)amino)hexyl)-3-((5-(2,6-dioxopiperidin-3-yl)-6-oxo-5,6-dihydro-4H-thieno[2,3-c]pyrrol-2-yl)methyl)urea], the viability at 1 µM in the test with MOLM-13 cells was > 90%. In addition, the fold induction at 1 µM in the test with IL-2 lay within 0.1 to 0.5. The inhibition at 1 µM with IL-1β, with TNF-α and with IL-6 was < 50% each time. The Dmax at 1 µM on IKAROS is ≥ 75%.
